Read-outs that look alike come from different tables or passages of the source.

Common to all, as to test: microbe, parasite or virus in culture
Holding throughout (settings): Hepatitis C virus

Assay [1] deals with 1a Pi-Rluc replicon with Q30R in genotype 1a NS5A. Type of assay: cell-based, HCV. The method, then: Antiviral potency (EC50) was determined using a Renilla luciferase (RLuc)-based HCV replicon reporter assay. […] To perform the assay for genotype 2a (with M31 present in NS5A) or 2b, NS5A chimeric genotype 2a JFH-1 replicons that encodes a RLuc-Neo reporter and either genotype 2a J6 strain NS5A gene or genotype 2b MD2b-1 strain NS5A gene (both with M31 present) respectively, were either transiently transfected (t) into Huh-Lunet cells or were established as stably replicating replicon cells (s) is provided. Either cells were dispensed into 384-well plates for EC50 assays. To perform the assay for genotype 3 and 4, NS5A chimeric genotype 1b Con1 replicons that encodes a Pi-RLuc reporter and either genotype 3a S52 strain NS5A gene or genotype 4a ED43 strain NS5A gene respectively, were transiently transfected (t) into Huh-Lunet cells, which were subsequently dispensed into 384-well plates. Compounds were dissolved in DMSO at a concentration of 10 mM and diluted in DMSO either manually or using an automated pipeting instrument. Serially 3-fold diluted compounds were either manually mixed with cell culture media and added to the seeded cells or directly added to the cells using an automated instrument. […] 72 hours later, cells were lysed and Renilla luciferase activity quantified as recommended by the manufacturer (Promega-Madison, Wis.). Non-linear regression was performed to calculate EC50 values.
To determine the antiviral potency (EC50) against resistance mutants, resistance mutations, including M28T, Q30R, Q30H, L31M, and Y93C in genotype 1a NS5A and Y93H in genotype 1b NS5A, were introduced individually into either 1a Pi-Rluc or 1b Pi-Rluc replicons by site directed mutagenesis. Replicon RNA of each resistant mutant was transiently transfected into Huh-7-derived cured-51 cells and antiviral potency was determined on these transfected cells as described above.

Assay [2] has as its system stable HCV 2a JFH-1 Rluc replicon cells (L31 present in NS5A). The format is cell-based.
Assay [3] concerns stable HCV 1a RLuc replicon cells (genotype 1a H77 replicon). The format is cell-based.
In assay [4] the test system is NS5A chimeric genotype 1b Con1 replicon with genotype 3a S52 strain NS5A gene. The format is cell-based, HCV. The method in brief: (§1)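 Con1-based 3a and 4a chimeras carried a Pi-RLuc reporter and were transiently transfected into Huh-Lunet cells; the JFH-1-based 2b chimera (RLuc-Neo) was used transiently or as stable replicon cells.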
The test system of assay [5] is NS5A chimeric genotype 2a JFH-1 replicon with genotype 2a J6 strain NS5A gene (M31 present). The format is cell-based, HCV.
Assay [6] has as its system NS5A chimeric genotype 2a JFH-1 replicon with genotype 2b MD2b-1 strain NS5A gene (M31 present). The format is cell-based, HCV. The method in brief: as §1
The subject of assay [7] is NS5A chimeric genotype 1b Con1 replicon with genotype 4a ED43 strain NS5A gene. The format is cell-based, HCV.

Consider `COC[C@H]1C[C@@H](c2nc3ccc4cc5c(cc4c3[nH]2)OCc2cc(-c3cnc([C@@H]4CCCN4C(=O)[C@@H](NC(=O)OC)C(C)C)[nH]3)ccc2-5)N(C(=O)[C@@H](NC(=O)OC)C(C)C)C1` [Compound 495], for which the EC50 in assay [1] (read-out: 1a Q30R) is less than 1 nM; in assay [1] (read-out: 1a Q30R (nM)) it was 0.201 nM; in assay [2] (read-out: 2a JFH), less than 1 nM; in assay [2] (read-out: 2a JFH (nM)) it was 0.008 nM; in assay [3] (read-out: 1a), less than 1 nM; in assay [3] (read-out: 1a (nM)), 0.021 nM. Besides, the EC50 in assay [4] (read-out: 3a) is less than 1 nM; in assay [4] (read-out: 3a (nM)), 0.024 nM; in assay [5] (read-out: 2a J6), less than 1 nM; in assay [5] (read-out: 2a J6 (s) (nM)), 1.02 nM; in assay [5] (read-out: 2a Jb (t) (nM)) it was 0.28 nM; in assay [6] (read-out: 2b), less than 1 nM. For the same molecule, the EC50 is 0.541 nM in assay [6] (read-out: 2b (s) (nM)); 0.135 nM in assay [6] (read-out: 2b (t) (nM)); less than 1 nM in assay [7] (read-out: 4a); 0.014 nM in assay [7] (read-out: 4a (s) (nM)); 0.014 nM in assay [7] (read-out: 4a (t) (nM)).

Regarding `COC[C@@H]1C[C@@H](c2nc3ccc4cc5c(cc4c3[nH]2)OCc2cc(-c3cnc([C@@H]4CCCN4C(=O)[C@@H](NC(=O)OC)C(C)C)[nH]3)ccc2-5)N(C(=O)[C@H](NC(=O)OC)c2ccccc2)C1` [Example MQ, methyl{(1R)-2-[(2S,4R)-2-(9-{2-[(2S)-1-{(2S)-2-[(methoxycarbonyl)amino]-3-methylbutanoyl}pyrrolidin-2-yl)-1H-imidazol-5-yl]-1,11-dihydroisochromeno[4′,3′:6,7]naphtho[1,2-d]imidazol-2-yl}-4-(methoxymethyl)pyrrolidin-1-yl]-2-oxo-phenylethyl}carbamate], the EC50 in assay [1] (read-out: 1a Q30R) was less than 1 nM; in assay [1] (read-out: 1a Q30R (nM)) it was 0.023 nM; in assay [2] (read-out: 2a JFH), less than 1 nM; in assay [2] (read-out: 2a JFH (nM)), 0.004 nM; in assay [3] (read-out: 1a), less than 1 nM; in assay [3] (read-out: 1a (nM)) it was 0.008 nM. In addition, the EC50 was less than 1 nM in assay [4] (read-out: 3a); 0.016 nM in assay [4] (read-out: 3a (nM)); less than 1 nM in assay [5] (read-out: 2a J6); 0.095 nM in assay [5] (read-out: 2a J6 (s) (nM)); 0.017 nM in assay [5] (read-out: 2a Jb (t) (nM)); less than 1 nM in assay [6] (read-out: 2b). The EC50 in assay [6] (read-out: 2b (s) (nM)) was 0.023 nM; in assay [6] (read-out: 2b (t) (nM)), 0.009 nM; in assay [7] (read-out: 4a), less than 1 nM; in assay [7] (read-out: 4a (t) (nM)), 0.011 nM.

In the case of `COC(=O)N[C@H](C(=O)N1CCC[C@H]1c1ncc(-c2ccc3c(c2)COc2cc4c(ccc5nc([C@@H]6C[C@H](C)CN6C(=O)[C@@H](NC(=O)OC)C(C)C)[nH]c54)cc2-3)[nH]1)C(C)C` [Compound 526], the EC50 in assay [1] (read-out: 1a Q30R) was less than 1 nM; in assay [1] (read-out: 1a Q30R (nM)), 0.095 nM; in assay [2] (read-out: 2a JFH), less than 1 nM; in assay [2] (read-out: 2a JFH (nM)) it was 0.007 nM; in assay [3] (read-out: 1a), less than 1 nM; in assay [3] (read-out: 1a (nM)), 0.011 nM. Besides, the EC50 is less than 1 nM in assay [4] (read-out: 3a); 0.018 nM in assay [4] (read-out: 3a (nM)); less than 1 nM in assay [5] (read-out: 2a J6); 1.64 nM in assay [5] (read-out: 2a J6 (s) (nM)); 0.443 nM in assay [5] (read-out: 2a Jb (t) (nM)); less than 1 nM in assay [6] (read-out: 2b). For the same molecule, the EC50 in assay [6] (read-out: 2b (s) (nM)) is 0.404 nM; in assay [6] (read-out: 2b (t) (nM)), 0.132 nM; in assay [7] (read-out: 4a), less than 1 nM; in assay [7] (read-out: 4a (s) (nM)), 0.011 nM; in assay [7] (read-out: 4a (t) (nM)), 0.011 nM.

Turning to `COC(=O)N[C@H](C(=O)N1CCC[C@H]1c1nc2c([nH]1)-c1cc3c(cc1CC2)-c1ccc(-c2cnc([C@@H]4CCCN4C(=O)[C@H](NC(=O)C4CC4)c4ccccc4)[nH]2)cc1CO3)C(C)C` [Compound 494], the EC50 was less than 1 nM in assay [1] (read-out: 1a Q30R); 0.118 nM in assay [1] (read-out: 1a Q30R (nM)); less than 1 nM in assay [2] (read-out: 2a JFH); 0.005 nM in assay [2] (read-out: 2a JFH (nM)); less than 1 nM in assay [3] (read-out: 1a); 0.037 nM in assay [3] (read-out: 1a (nM)). The EC50 is less than 1 nM in assay [4] (read-out: 3a); 0.005 nM in assay [4] (read-out: 3a (nM)); less than 1 nM in assay [5] (read-out: 2a J6); 0.098 nM in assay [5] (read-out: 2a J6 (s) (nM)); less than 1 nM in assay [6] (read-out: 2b); 0.017 nM in assay [6] (read-out: 2b (s) (nM)). Besides, the EC50 in assay [7] (read-out: 4a) was less than 1 nM; in assay [7] (read-out: 4a (s) (nM)) it was 0.031 nM; in assay [7] (read-out: 4a (t) (nM)), 0.017 nM.

In the case of `COC(=O)N[C@H](C(=O)N1[C@H](c2nc3ccc4cc5c(cc4c3[nH]2)OCc2cc(-c3cnc(C4CCCN4C(=O)[C@H](NC(=O)OC)c4ccccc4)[nH]3)ccc2-5)C[C@@H]2CCC[C@@H]21)C(C)C` (stereo partly drawn) [Example PN, methyl {(1R)-2-[2-(5-{2-[(2S,3aS,6aS)-1-{(2S)-2-[(methoxycarbonyl)amino]-3-methylbutanoyl}octahydrocyclopenta[b]pyrrol-2-yl]-1,11-dihydroisochromeno[4′,3′:6,7]naphtho[1,2-d]imidazol-9-yl}-1H-imidazol-2-yl)pyrrolidin-1-yl]-2-oxo-1-phenylethyl}carbamate], the EC50 in assay [1] (read-out: 1a Q30R) was less than 1 nM; in assay [1] (read-out: 1a Q30R (nM)), 0.03 nM; in assay [2] (read-out: 2a JFH), less than 1 nM; in assay [2] (read-out: 2a JFH (nM)), 0.009 nM; in assay [3] (read-out: 1a), less than 1 nM; in assay [3] (read-out: 1a (nM)) it was 0.015 nM. Besides, the EC50 is less than 1 nM in assay [4] (read-out: 3a); 0.016 nM in assay [4] (read-out: 3a (nM)); less than 1 nM in assay [5] (read-out: 2a J6); 0.277 nM in assay [5] (read-out: 2a J6 (s) (nM)); 0.027 nM in assay [5] (read-out: 2a Jb (t) (nM)); less than 1 nM in assay [6] (read-out: 2b). Further, the EC50 in assay [6] (read-out: 2b (s) (nM)) is 0.035 nM; in assay [6] (read-out: 2b (t) (nM)) it was 0.014 nM; in assay [7] (read-out: 4a), less than 1 nM; in assay [7] (read-out: 4a (s) (nM)), 0.02 nM; in assay [7] (read-out: 4a (t) (nM)) it was 0.014 nM.

For the molecule `COC(=O)N[C@H](C(=O)N1[C@@H](C)CC[C@H]1c1ncc(-c2ccc3c(c2)COc2cc4c(ccc5nc([C@@H]6CC[C@H](C)N6C(=O)[C@@H](NC(=O)OC)C(C)C)[nH]c54)cc2-3)[nH]1)C(C)C` [Example NG, Methyl {(2S)-1-[(2S,5S)-2-(5-{2-[(2S,5S)-1-{(2S)-2-[(methoxycarbonyl)amino]-3-methylbutanoyl}-5-methylpyrrolidin-2-yl]-1,11-dihydroisochromeno[4′,3′:6,7]naphtho[1,2-d]imidazol-9-yl}-1H-imidazol-2-yl)-5-methylpyrrolidin-1-yl]-3-methyl-1-oxobutan-2-yl}carbamate], the EC50 in assay [1] (read-out: 1a Q30R) was less than 1 nM; in assay [1] (read-out: 1a Q30R (nM)), 0.243 nM; in assay [2] (read-out: 2a JFH), less than 1 nM; in assay [2] (read-out: 2a JFH (nM)), 0.01 nM; in assay [3] (read-out: 1a), less than 1 nM; in assay [3] (read-out: 1a (nM)) it was 0.006 nM. Further, the EC50 was less than 1 nM in assay [4] (read-out: 3a); 0.02 nM in assay [4] (read-out: 3a (nM)); less than 1 nM in assay [5] (read-out: 2a J6); 1.67 nM in assay [5] (read-out: 2a J6 (s) (nM)); 0.37 nM in assay [5] (read-out: 2a Jb (t) (nM)); less than 1 nM in assay [6] (read-out: 2b). The EC50 in assay [6] (read-out: 2b (s) (nM)) is 0.135 nM; in assay [6] (read-out: 2b (t) (nM)) it was 0.063 nM; in assay [7] (read-out: 4a), less than 1 nM; in assay [7] (read-out: 4a (t) (nM)) it was 0.008 nM.

For `CCO[C@H]1C[C@@H](c2nc3ccc4cc5c(cc4c3[nH]2)OCc2cc(-c3cnc([C@@H]4CCCN4C(=O)[C@@H](NC(=O)OC)C(C)C)[nH]3)ccc2-5)N(C(=O)[C@@H](NC(=O)OC)C(C)C)C1` [Example OQ, Methyl {(2S)-1-[(2S)-2-(5-{2-[(2S,4S)-4-ethoxy-1-{(2S)-2-[(methoxycarbonyl)amino]-3-methylbutanoyl}pyrrolidin-2-yl]-1,11-dihydroisochromeno[4′,3′:6,7]naphtho[1,2-d]imidazol-9-yl}-1H-imidazol-2-yl)pyrrolidin-1-yl]-3-methyl-1-oxobutan-2-yl}carbamate], the EC50 is less than 1 nM in assay [1] (read-out: 1a Q30R); 0.102 nM in assay [1] (read-out: 1a Q30R (nM)); less than 1 nM in assay [2] (read-out: 2a JFH); 0.007 nM in assay [2] (read-out: 2a JFH (nM)); less than 1 nM in assay [3] (read-out: 1a); 0.015 nM in assay [3] (read-out: 1a (nM)). The EC50 in assay [4] (read-out: 3a) was less than 1 nM; in assay [4] (read-out: 3a (nM)) it was 0.048 nM; in assay [5] (read-out: 2a J6), less than 1 nM; in assay [5] (read-out: 2a J6 (s) (nM)), 1.49 nM; in assay [5] (read-out: 2a Jb (t) (nM)), 0.378 nM; in assay [6] (read-out: 2b) it was less than 1 nM. In addition, the EC50 was 0.982 nM in assay [6] (read-out: 2b (s) (nM)); 0.265 nM in assay [6] (read-out: 2b (t) (nM)); less than 1 nM in assay [7] (read-out: 4a); 0.016 nM in assay [7] (read-out: 4a (s) (nM)); 0.02 nM in assay [7] (read-out: 4a (t) (nM)).

Values taken from patent publication US8575135B2 (Gilead Sciences, Inc., priority 2011, dated 2013).
